The text below walks through data of US8329707B2, “Substituted pyrazine compounds” (Astellas Pharma Inc., priority 2008, dated 2012).

For assay [1], the system named is ICR mouse. As to the kind of experiment: Oral glucose tolerance test in normal mouse. The format is in vivo. The following applies: ICR mouse fasted overnight; 10 mg/kg oral, glucose loading after 30 minutes; AUC lowering rate of blood glucose up to 2 hours after glucose loading vs solvent control. As for the experimental part:
(§1) The test compound was dissolved in a solvent (5% Cremophor, aqueous 5% DMSO solution), and to an ICR mouse after fasting overnight was orally administered 10 mg/kg of the test compound, and after 30 minutes, oral glucose loading was carried out. Immediately before the administration of the test compound, immediately before the glucose loading, and 0.25, 0.5, 1, and 2 hours after the glucose loading, blood was collected and blood glucose levels were measured. An AUC lowering rate (%) of the blood glucose levels from immediately before the glucose loading to 2 hours after the glucose loading with respect to that of the solvent control group was calculated.

The test system of assay [2] is SD rat. As to the kind of experiment: Oral glucose tolerance test in normal rat. It is filed as in vivo. Particulars: SD rat fasted overnight; 1 mg/kg oral, glucose loading after 30 minutes; AUC lowering rate of blood glucose up to 2 hours vs solvent control. The method, then:
as §1, with “SD rat” for “ICR mouse”, “1” for “10”, “and” for “and 0.25,”, “control” for “control group”

The target of assay [3] is T1, recombinant human hepatic type GK (GST-hGK2) (Homo sapiens, UniProt P35557).
T1 construct: made in house; host or cells: Escherichia coli BL21
T1 sequence (P35557 1-466 isoform P35557-2): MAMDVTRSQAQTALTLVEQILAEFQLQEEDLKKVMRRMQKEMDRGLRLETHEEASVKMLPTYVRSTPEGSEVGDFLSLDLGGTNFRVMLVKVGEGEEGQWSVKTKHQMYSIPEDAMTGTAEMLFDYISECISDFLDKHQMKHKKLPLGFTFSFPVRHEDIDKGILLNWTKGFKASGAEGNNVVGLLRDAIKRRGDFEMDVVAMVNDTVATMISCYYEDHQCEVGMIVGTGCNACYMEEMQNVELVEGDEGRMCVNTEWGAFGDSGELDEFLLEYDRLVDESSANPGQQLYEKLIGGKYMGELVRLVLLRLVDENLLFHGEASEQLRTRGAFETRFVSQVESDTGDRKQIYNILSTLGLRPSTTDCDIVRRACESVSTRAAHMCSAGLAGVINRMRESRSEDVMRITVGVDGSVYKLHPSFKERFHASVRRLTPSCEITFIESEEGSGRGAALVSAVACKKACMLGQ
The experiment in a line: Measurement of glucokinase (GK) activation. The format is biochemical. The following applies: 10 min; test compound final concentration 10 μM; 5 mM glucose; 27° C.; increase of absorbance at 340 nm during first 10 minutes vs DMSO; read-out: GK activation (%). As for the experimental part: The present test was carried out in accordance with the method described in Science 301: 370-373, 2003 and with partial modification thereof. Hereinafter, the summary is described.
First, the cloning of GK (GenBank No. AK122876) was carried out. 5′-[…]-3′(SEQ ID NO: 1) and 5′-[…]-3′(SEQ ID NO: 2) were used as primers, and pME18S-FL3-Glucokinase isoform 2 was used as a template to carry out PCR. The obtained reaction product was TA-cloned into a pGEM-T easy vector, digested with EcoRI and XhoI, and introduced to the pGEX-5X-1 vector digested in the same manner by ligation. By using this plasmid DNA (pGEX-human Glucokinase 2), a recombinant human hepatic type GK (GST-hGK2) fused with GST (Glutathione S-transferase) was expressed in Escherichia coli (BL21 strain) and purified by Glutathione Sepharose.
The reaction of GK was carried out at 27° C. on a 96-well plate. First, 1 μL of the test compound (final concentration 10 μM) that has been diluted with dimethylsulfoxide (DMSO) was added to 89 μL of an enzyme mixed liquid (all final concentration 25 mM HEPES pH 7.4, 25 mM KCl, 2 mM MgCl2, 1 mM ATP, 0.1% BSA, 1 mM DTT, 1 mM NADP (nicotinamide adenine dinucleotide phosphate), 2.5 U/ml glucose-6-phosphate dehydrogenase, GST-hGK2 adjusted to ΔODCont of about 0.05 to 0.10). Subsequently, 10 μL of a substrate solution (final concentration 5 mM glucose) was added to start the reaction. In order to quantify a final product NADPH, an absorbance at a wavelength of 340 nm was measured, and the GK activation (%) of the test compound was calculated from the increase of absorbance during the first 10 minutes (ΔOD) after initiation of the reaction. GK activation (%)=[(ΔODTest)−(ΔODCont)]/(ΔODCont)×100
ΔODTest: ΔOD at test compound

Assay [4] deals with C57BL/6 mice after loading a high fat diet. The experiment in a line: Oral glucose tolerance test in mouse fed high fat diet. The format is in vivo. Particulars: high fat diet about 30 days, fasted overnight, 1 mg/kg oral, glucose loading after 30 minutes, AUC lowering rate of blood glucose up to 2 hours vs solvent control. The method, then:
The test compound was dissolved in a solvent (5% Cremophor, aqueous 5% DMSO solution), and to a C57BL/6 mice after loading a high fat diet for about 30 days and then fasting overnight was orally administered 1 mg/kg of the test compound, and after 30 minutes, oral glucose loading was carried out. Immediately before the administration of the test compound, immediately before the glucose loading, and 0.25, 0.5, 1, and 2 hours after the glucose loading, blood was collected and blood glucose levels were measured. An AUC lowering rate (%) of the blood glucose levels from immediately before the glucose loading to 2 hours after the glucose loading with respect to that of the solvent control was calculated.

Counter-ions that a name gives are not always drawn.

Turning to `Cn1ccc(NC(=O)/C(=C/[C@H]2CCC(=O)C2)c2ccc(S(=O)(=O)C3CC3)c(C3CC3)c2)n1` [Example 4-1, (2E)-2-[3-cyclopropyl-4-(cyclopropylsulfonyl)phenyl]-N-(1-methyl-1H-pyrazol-3-yl)-3-[(1S)-3-oxocyclopentyl]acrylamide], in assay [1], the inhibition in vivo – broadly, the percentage by which the read-out fell short of the control – at 10 mg/kg is 39%. Further, the “Blood glucose lowering rate (%)” value stood at 25% in assay [2] and 32% in assay [4]. In addition, in assay [3], the activation at 10 µM came out at 355%.

The compound `Cc1ccc(NC(=O)[C@H](C[C@H]2CCC(=O)C2)c2ccc(S(=O)(=O)C3CC3)c(C3CC3)c2)nc1` [Example 9, (2R)-2-[3-cyclopropyl-4-(cyclopropylsulfonyl)phenyl]-N-(5-methylpyridin-2-yl)-3-[(1R)-3-oxocyclopentyl]propanamide monohydrochloride] had an inhibition in vivo at 10 mg/kg in assay [1] of 52%. Also, the activation at 10 µM in assay [3] is 333%.

The compound `CC(C)(O)COc1cnc(NC(=O)[C@H](C[C@H]2CCC(=O)C2)c2ccc(S(=O)(=O)C3CC3)c(C3CC3)c2)cn1` [Example 10, (2R)-2-[3-cyclopropyl-4-(cyclopropylsulfonyl)phenyl]-N-[5-(2-hydroxy-2-methylpropoxy)pyrazin-2-yl]-3-[(1R)-3-oxocyclopentyl]propanamide] yielded an inhibition in vivo at 10 mg/kg in assay [1] of 51%. The activation at 10 µM in assay [3] is 357%.

`O=C1CC[C@H](C[C@@H](C(=O)Nc2cnc(OCCO)cn2)c2ccc(S(=O)(=O)C3CC3)c(C3CC3)c2)C1` [Example 11, (2R)-2-[3-cyclopropyl-4-(cyclopropylsulfonyl)phenyl]-N-[5-(2-hydroxyethoxy)pyrazin-2-yl]-3-[(1R)-3-oxocyclopentyl]propanamide]: at 10 mg/kg the inhibition in vivo in assay [1] was 50%. The “Blood glucose lowering rate (%)” value in assay [2] is listed as 20%. Further, the activation at 10 µM in assay [3] was found to be 433%.

In turn, `O=C1CC[C@H](C[C@@H](C(=O)Nc2cnc(CO)cn2)c2ccc(S(=O)(=O)C3CC3)c(C3CC3)c2)C1` [Example 15, (2R)-2-[3-cyclopropyl-4-(cyclopropylsulfonyl)phenyl]-N-[5-(hydroxymethyl)pyrazin-2-yl]-3-[(1R)-3-oxocyclopentyl]propanamide] had an inhibition in vivo at 10 mg/kg in assay [1] of 49%. In addition, the “Blood glucose lowering rate (%)” value in assay [2] is 22%. Moreover, the activation at 10 µM in assay [3] turned out to be 284%.

Regarding `Cn1ccc(NC(=O)/C(=C/[C@H]2CC[C@H](O)C2)c2ccc(S(=O)(=O)C3CC3)c(C3CC3)c2)n1` [Example 22-1, 2(E)-[3-cyclopropyl-4-(cyclopropylsulfonyl)phenyl]-3-[(1S,3S)-3-hydroxycyclopentyl]-N-(1-methyl-1H-pyrazol-3-yl)acrylamide], at 10 mg/kg the inhibition in vivo in assay [1] was 55%. In addition, the “Blood glucose lowering rate (%)” value in assay [2] stood at 27%. In addition, the activation at 10 µM in assay [3] was found to be 197%.

In assay [1], `Cn1ccc(NC(=O)/C(=C/[C@H]2CC[C@@H](O)C2)c2ccc(S(=O)(=O)C3CC3)c(C3CC3)c2)n1` [Example 22-2, 2(E)-[3-cyclopropyl-4-(cyclopropylsulfonyl)phenyl]-3-[(1S,3R)-3-hydroxycyclopentyl]-N-(1-methyl-1H-pyrazol-3-yl)acrylamide] came in with an inhibition in vivo at 10 mg/kg of 52%. Further, in assay [2], the “Blood glucose lowering rate (%)” value is on record as 25%. Moreover, in assay [3], the activation at 10 µM amounted to 199%.

On to `Cc1cnc(NC(=O)/C(=C/[C@H]2CCC(=O)C2)c2ccc(S(=O)(=O)C3CC3)c(C3CC3)c2)cn1` [Example 36], for which, in assay [1], the inhibition in vivo at 10 mg/kg came to 45%. Further, the “Blood glucose lowering rate (%)” value in assay [2] came to 40%; in assay [4] it was 43%. The activation at 10 µM in assay [3] is 332%.

Take `CC(=O)c1csc(NC(=O)[C@H](C[C@H]2CCC(=O)C2)c2ccc(S(=O)(=O)C3CC3)c(C3CC3)c2)n1` [Example 51]: testing at 10 mg/kg in assay [1] gave an inhibition in vivo of 55%. Further, the activation at 10 µM in assay [3] came out at 352%.

In assay [1], `Cc1cnc(NC(=O)[C@H](C[C@H]2CCC(=O)C2)c2ccc(S(=O)(=O)C3CC3)c(C3CC3)c2)cn1` [Example 55] registered an inhibition in vivo at 10 mg/kg of 56%. For the same compound, the activation at 10 µM in assay [3] stood at 315%.

`O=C1CC[C@H](C[C@@H](C(=O)Nc2cnc(Cl)cn2)c2ccc(S(=O)(=O)C3CC3)c(C3CC3)c2)C1` [Example 70] came in with an inhibition in vivo at 10 mg/kg in assay [1] of 60%. Further, the activation at 10 µM in assay [3] was 282%.

Consider `COc1cnc(NC(=O)[C@H](C[C@H]2CCC(=O)C2)c2ccc(S(=O)(=O)C3CC3)c(C3CC3)c2)cn1` [Example 72], for which 10 mg/kg produced 59% inhibition in vivo in assay [1]. The activation at 10 µM in assay [3] was determined as 311%.

On to `Cc1cnc(NC(=O)[C@H](C[C@H]2CCC(O)C2)c2ccc(S(=O)(=O)C3CC3)c(C3CC3)c2)cn1` (stereo partly drawn) [Example 78], for which 10 mg/kg produced 50% inhibition in vivo in assay [1]. Also, the activation at 10 µM in assay [3] amounted to 273%.

Regarding `COc1cnc(NC(=O)[C@H](C[C@H]2CCC(O)C2)c2ccc(S(=O)(=O)C3CC3)c(C3CC3)c2)cn1` (stereo partly drawn) [Example 79], in assay [1], the inhibition in vivo at 10 mg/kg was 45%. Besides, the activation at 10 µM in assay [3] came to 297%.

For the compound `CC(O)c1cnc(NC(=O)[C@H](C[C@H]2CCC(=O)C2)c2ccc(S(=O)(=O)C3CC3)c(C3CC3)c2)cn1` (stereo partly drawn) [Example 83], 10 mg/kg produced 51% inhibition in vivo in assay [1]. The “Blood glucose lowering rate (%)” value in assay [2] is 17%. In addition, the activation at 10 µM in assay [3] was determined as 345%.
